Source: the NIST ThermoML archive (doi:10.1021/acs.jced.8b00132)
“And” between values parts separate entries of the source, which are not always exact repeats. Identical values can stand only once.

O=C(C(F)(F)C(F)(F)F)C(F)(C(F)(F)F)C(F)(F)F [dodecafluoro-2-methylpentan-3-one]
Details	thermal conductivity
330 K, 67724 kPa, Liquid, transient hot wire	0.07584 W/m/K
330.01 K, 117 kPa, Gas, hot wire	0.01411 W/m/K
330.01 K, 14125 kPa, Liquid, transient hot wire	0.05895 W/m/K
330.01 K, 14129 kPa, Liquid, transient hot wire	0.05898 W/m/K
330.02 K, 117 kPa, Gas, hot wire	0.01412 W/m/K
330.02 K, 36718 kPa, Liquid, transient hot wire	0.0672 W/m/K
330.02 K, 36720 kPa, Liquid, transient hot wire	0.06721 W/m/K
330.06 K, 57396 kPa, Liquid, transient hot wire	0.07315 W/m/K
330.06 K, 57404 kPa, Liquid, transient hot wire	0.07318 W/m/K
330.09 K, 27942 kPa, Liquid, transient hot wire	0.06426 W/m/K
330.09 K, 27945 kPa, Liquid, transient hot wire	0.06429 W/m/K
330.1 K, 8617 kPa, Liquid, transient hot wire	0.05649 W/m/K
330.1 K, 8619 kPa, Liquid, transient hot wire	0.0565 W/m/K
330.14 K, 4470 kPa, Liquid, transient hot wire	0.05444 W/m/K
330.14 K, 46576 kPa, Liquid, transient hot wire	0.07022 W/m/K
330.14 K, 46583 kPa, Liquid, transient hot wire	0.07015 W/m/K
330.15 K, 4473 kPa, Liquid, transient hot wire	0.05441 W/m/K
330.16 K, 20517 kPa, Liquid, transient hot wire	0.06186 W/m/K
330.16 K, 20518 kPa, Liquid, transient hot wire	0.06149 W/m/K
330.19 K, 67678 kPa, Liquid, transient hot wire	0.07583 W/m/K
330.2 K, 67695 kPa, Liquid, transient hot wire	0.07583 W/m/K
330.21 K, 178 kPa, Liquid, transient hot wire	0.05173 W/m/K
330.22 K, 178 kPa, Liquid, transient hot wire	0.05205 W/m/K
330.23 K, 180 kPa, Liquid, transient hot wire	0.05206 W/m/K
330.23 K, 36712 kPa, Liquid, transient hot wire	0.06716 W/m/K
330.23 K, 36715 kPa, Liquid, transient hot wire	0.06712 W/m/K
330.24 K, 180 kPa, Liquid, transient hot wire	0.05202 W/m/K
330.24 K, 14124 kPa, Liquid, transient hot wire	0.05892 W/m/K
330.24 K, 14130 kPa, Liquid, transient hot wire	0.05892 W/m/K
330.26 K, 57370 kPa, Liquid, transient hot wire	0.07313 W/m/K
330.26 K, 57385 kPa, Liquid, transient hot wire	0.07314 W/m/K
330.31 K, 27940 kPa, Liquid, transient hot wire	0.06422 W/m/K
330.31 K, 27943 kPa, Liquid, transient hot wire	0.06422 W/m/K
330.33 K, 8610 kPa, Liquid, transient hot wire	0.05657 W/m/K
330.33 K, 8620 kPa, Liquid, transient hot wire	0.05647 W/m/K
330.35 K, 46566 kPa, Liquid, transient hot wire	0.07011 W/m/K
330.35 K, 46569 kPa, Liquid, transient hot wire	0.07013 W/m/K
330.38 K, 4468 kPa, Liquid, transient hot wire	0.05439 W/m/K
330.39 K, 4469 kPa, Liquid, transient hot wire	0.0544 W/m/K
330.39 K, 20517 kPa, Liquid, transient hot wire	0.06147 W/m/K
330.4 K, 20518 kPa, Liquid, transient hot wire	0.06147 W/m/K
330.45 K, 36702 kPa, Liquid, transient hot wire	0.06713 W/m/K
330.45 K, 36716 kPa, Liquid, transient hot wire	0.06714 W/m/K
330.46 K, 179 kPa, Liquid, transient hot wire	0.052 W/m/K
330.47 K, 179 kPa, Liquid, transient hot wire	0.05202 W/m/K
330.48 K, 180 kPa, Liquid, transient hot wire	0.05201 W/m/K
330.48 K, 181 kPa, Liquid, transient hot wire	0.052 W/m/K
330.48 K, 14128 kPa, Liquid, transient hot wire	0.05889 W/m/K
330.48 K, 14134 kPa, Liquid, transient hot wire	0.05891 W/m/K
330.53 K, 27942 kPa, Liquid, transient hot wire	0.0642 W/m/K
330.54 K, 27944 kPa, Liquid, transient hot wire	0.06418 W/m/K
330.58 K, 8615 kPa, Liquid, transient hot wire	0.0564 W/m/K
330.58 K, 8617 kPa, Liquid, transient hot wire	0.05641 W/m/K
330.63 K, 4467 kPa, Liquid, transient hot wire	0.05435 W/m/K
330.63 K, 20513 kPa, Liquid, transient hot wire	0.06146 W/m/K
330.64 K, 4463 kPa, Liquid, transient hot wire	0.05433 W/m/K
330.64 K, 20514 kPa, Liquid, transient hot wire	0.06146 W/m/K
330.73 K, 179 kPa, Liquid, transient hot wire	0.05196 W/m/K and 0.05197 W/m/K
330.73 K, 181 kPa, Liquid, transient hot wire	0.05196 W/m/K and 0.05215 W/m/K
330.73 K, 14130 kPa, Liquid, transient hot wire	0.05885 W/m/K
330.74 K, 14134 kPa, Liquid, transient hot wire	0.0589 W/m/K
330.84 K, 8608 kPa, Liquid, transient hot wire	0.05637 W/m/K
330.84 K, 8609 kPa, Liquid, transient hot wire	0.05639 W/m/K
330.91 K, 4465 kPa, Liquid, transient hot wire	0.05432 W/m/K and 0.0543 W/m/K
331.01 K, 179 kPa, Liquid, transient hot wire	0.05176 W/m/K and 0.05194 W/m/K
331.01 K, 180 kPa, Liquid, transient hot wire	0.05194 W/m/K
331.01 K, 181 kPa, Liquid, transient hot wire	0.05193 W/m/K
331.09 K, 3942 kPa, Liquid, transient hot wire	0.05385 W/m/K
331.1 K, 3945 kPa, Liquid, transient hot wire	0.05411 W/m/K
331.21 K, 28078 kPa, Liquid, transient hot wire	0.06464 W/m/K
331.22 K, 20447 kPa, Liquid, transient hot wire	0.06133 W/m/K
331.22 K, 28080 kPa, Liquid, transient hot wire	0.06416 W/m/K
331.23 K, 20449 kPa, Liquid, transient hot wire	0.06095 W/m/K
331.24 K, 14112 kPa, Liquid, transient hot wire	0.05849 W/m/K
331.25 K, 14113 kPa, Liquid, transient hot wire	0.05865 W/m/K
331.28 K, 8580 kPa, Liquid, transient hot wire	0.05626 W/m/K
331.28 K, 8582 kPa, Liquid, transient hot wire	0.05648 W/m/K
331.31 K, 242 kPa, Liquid, transient hot wire	0.05138 W/m/K and 0.05151 W/m/K
331.36 K, 73 kPa, Liquid, transient hot wire	0.05184 W/m/K
331.36 K, 69235 kPa, Liquid, transient hot wire	0.07553 W/m/K
331.36 K, 69237 kPa, Liquid, transient hot wire	0.07531 W/m/K
331.37 K, 107 kPa, Liquid, transient hot wire	0.05182 W/m/K
331.37 K, 57734 kPa, Liquid, transient hot wire	0.07228 W/m/K
331.37 K, 57739 kPa, Liquid, transient hot wire	0.07238 W/m/K
